Data as given in patent US10800791B2, “Triazole ACC inhibitors and uses thereof” (Gilead Apollo, LLC, priority 2015, dated 2020).
Values after ≈ are worked out from the molar mass of the structure shown.

Experiments:
[1] = target: human (hACC2) (Homo sapiens, UniProt O00763); experiment: In vitro ACC inhibition assay (ADP-Glo), hACC2; format: biochemical; conditions: Table 2b, additional results, 5 nM ACC2, 20 μM ATP, 20 μM acetyl-CoA
Method: The detailed procedure is as follows. […] 10 μL ADP glo reagent was added. […] 20 μL kinase detection reagent was added.

[2] = test system: C. albicans; experiment: Antifungal Activity Assay (broth microtiter MIC), C. albicans; format: cell-based, Candida albicans; conditions: Candida albicans, ATCC90028, 48 h, Table 3b (additional results); ATCC 90028; 3 replicates; MIC recorded at 48 h; read-out: MIC, C. albicans ATCC 90028
Summary of the method: (§1)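 CLSI M27-A3 broth microdilution in RPMI 1640+MOPS, final inoculum 2.5×10^3 CFU/mL from overnight Sabouraud cultures grown at 35 °C. MIC read visually at 48 h against growth control.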

[3] = test system: C. krusei; experiment: Antifungal Activity Assay (broth microtiter MIC), C. krusei; format: cell-based, Candida krusei; conditions: Pichia kudriavzevii, ATCC6258, 48 h, Table 3b (additional results); ATCC 6258; 3 replicates; MIC recorded at 48 h; read-out: MIC, C. krusei ATCC 6258
Summary of the method: as §1

[4] = test system: C. parapsilosis; experiment: Antifungal Activity Assay (broth microtiter MIC), C. parapsilosis; format: cell-based, Candida parapsilosis; conditions: Lodderomyces parapsilosis, ATCC22019, 48 h, Table 3b (additional results); ATCC 22019; 3 replicates; MIC recorded at 48 h; read-out: MIC, C. parapsilosis ATCC 22019
Summary of the method: as §1

[5] = test system: Botrtyis cinerea (Bc); experiment: Growth inhibition assay of fungal pathogens, Bc; format: cell-based; conditions: 48 h, Botrtyis cinerea; growth inhibition at 48 hours vs 2% DMSO control; read-out: Concentration at 90% Inhibition Bc
Summary of the method: (§2)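 Spores diluted in 17% V8 liquid media and incubated with compound at final 50, 10, 2 ppm or 2, 0.4, 0.08 ppm (2% DMSO). OD600 plus visual ratings at 24 and 48 hours, blank-subtracted; percent growth inhibition from 48 h readings relative to 2% DMSO control.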

[6] = test system: Collectotrichum graminicola (Cg); experiment: Growth inhibition assay of fungal pathogens, Cg; format: cell-based; conditions: 48 h, Collectotrichum graminicola; growth inhibition at 48 hours vs 2% DMSO control; read-out: Concentration at 90% Inhibition Cg
Summary of the method: as §2

[7] = test system: Diplodia maydis (Dm); experiment: Growth inhibition assay of fungal pathogens, Dm; format: cell-based; conditions: Stenocarpella maydis, 48 h, Diplodia maydis; growth inhibition at 48 hours vs 2% DMSO control; read-out: Concentration at 90% Inhibition Dm
Summary of the method: as §2

[8] = test system: Fusarium moniliforme (Fm); experiment: Growth inhibition assay of fungal pathogens, Fm; format: cell-based; conditions: Fusarium verticillioides, 48 h, Fusarium moniliforme; growth inhibition at 48 hours vs 2% DMSO control; read-out: Concentration at 90% Inhibition Fm
Summary of the method: as §2

[9] = test system: Fusarium virguliforme (Fv); experiment: Growth inhibition assay of fungal pathogens, Fv; format: cell-based; conditions: 48 h, growth inhibition at 48 hours vs 2% DMSO control, read-out: Concentration at 90% Inhibition Fv
Summary of the method: as §2

[10] = test system: Phytophthora capsici (Pc); experiment: Growth inhibition assay of fungal pathogens, Pc; format: cell-based; conditions: 48 h, growth inhibition at 48 hours vs 2% DMSO control, read-out: Concentration at 90% Inhibition Pc
Summary of the method: as §2

[11] = test system: Rhizoctonia solani (Rs); experiment: Growth inhibition assay of fungal pathogens, Rs; format: cell-based; conditions: 48 h, mycelial plugs, growth inhibition at 48 hours vs 2% DMSO control, read-out: Concentration at 90% Inhibition Rs
[12] = test system: Septoria tritici (St); experiment: Growth inhibition assay of fungal pathogens, St; format: cell-based; conditions: Zymoseptoria tritici, 48 h, Septoria tritici; growth inhibition at 48 hours vs 2% DMSO control; read-out: Concentration at 90% Inhibition St
Summary of the method: as §2

[13] = target: fungal (fACC2) (UniProt Q00955); conditions: read-out: fACC2 (in vitro ACC2 Inhibition Assay, IC50); Table 2b, additional results; ADP-Glo, 5 nM ACC2, 20 μM ATP, 20 μM acetyl-CoA
fungal (fACC2), sequence (Q00955 whole entry): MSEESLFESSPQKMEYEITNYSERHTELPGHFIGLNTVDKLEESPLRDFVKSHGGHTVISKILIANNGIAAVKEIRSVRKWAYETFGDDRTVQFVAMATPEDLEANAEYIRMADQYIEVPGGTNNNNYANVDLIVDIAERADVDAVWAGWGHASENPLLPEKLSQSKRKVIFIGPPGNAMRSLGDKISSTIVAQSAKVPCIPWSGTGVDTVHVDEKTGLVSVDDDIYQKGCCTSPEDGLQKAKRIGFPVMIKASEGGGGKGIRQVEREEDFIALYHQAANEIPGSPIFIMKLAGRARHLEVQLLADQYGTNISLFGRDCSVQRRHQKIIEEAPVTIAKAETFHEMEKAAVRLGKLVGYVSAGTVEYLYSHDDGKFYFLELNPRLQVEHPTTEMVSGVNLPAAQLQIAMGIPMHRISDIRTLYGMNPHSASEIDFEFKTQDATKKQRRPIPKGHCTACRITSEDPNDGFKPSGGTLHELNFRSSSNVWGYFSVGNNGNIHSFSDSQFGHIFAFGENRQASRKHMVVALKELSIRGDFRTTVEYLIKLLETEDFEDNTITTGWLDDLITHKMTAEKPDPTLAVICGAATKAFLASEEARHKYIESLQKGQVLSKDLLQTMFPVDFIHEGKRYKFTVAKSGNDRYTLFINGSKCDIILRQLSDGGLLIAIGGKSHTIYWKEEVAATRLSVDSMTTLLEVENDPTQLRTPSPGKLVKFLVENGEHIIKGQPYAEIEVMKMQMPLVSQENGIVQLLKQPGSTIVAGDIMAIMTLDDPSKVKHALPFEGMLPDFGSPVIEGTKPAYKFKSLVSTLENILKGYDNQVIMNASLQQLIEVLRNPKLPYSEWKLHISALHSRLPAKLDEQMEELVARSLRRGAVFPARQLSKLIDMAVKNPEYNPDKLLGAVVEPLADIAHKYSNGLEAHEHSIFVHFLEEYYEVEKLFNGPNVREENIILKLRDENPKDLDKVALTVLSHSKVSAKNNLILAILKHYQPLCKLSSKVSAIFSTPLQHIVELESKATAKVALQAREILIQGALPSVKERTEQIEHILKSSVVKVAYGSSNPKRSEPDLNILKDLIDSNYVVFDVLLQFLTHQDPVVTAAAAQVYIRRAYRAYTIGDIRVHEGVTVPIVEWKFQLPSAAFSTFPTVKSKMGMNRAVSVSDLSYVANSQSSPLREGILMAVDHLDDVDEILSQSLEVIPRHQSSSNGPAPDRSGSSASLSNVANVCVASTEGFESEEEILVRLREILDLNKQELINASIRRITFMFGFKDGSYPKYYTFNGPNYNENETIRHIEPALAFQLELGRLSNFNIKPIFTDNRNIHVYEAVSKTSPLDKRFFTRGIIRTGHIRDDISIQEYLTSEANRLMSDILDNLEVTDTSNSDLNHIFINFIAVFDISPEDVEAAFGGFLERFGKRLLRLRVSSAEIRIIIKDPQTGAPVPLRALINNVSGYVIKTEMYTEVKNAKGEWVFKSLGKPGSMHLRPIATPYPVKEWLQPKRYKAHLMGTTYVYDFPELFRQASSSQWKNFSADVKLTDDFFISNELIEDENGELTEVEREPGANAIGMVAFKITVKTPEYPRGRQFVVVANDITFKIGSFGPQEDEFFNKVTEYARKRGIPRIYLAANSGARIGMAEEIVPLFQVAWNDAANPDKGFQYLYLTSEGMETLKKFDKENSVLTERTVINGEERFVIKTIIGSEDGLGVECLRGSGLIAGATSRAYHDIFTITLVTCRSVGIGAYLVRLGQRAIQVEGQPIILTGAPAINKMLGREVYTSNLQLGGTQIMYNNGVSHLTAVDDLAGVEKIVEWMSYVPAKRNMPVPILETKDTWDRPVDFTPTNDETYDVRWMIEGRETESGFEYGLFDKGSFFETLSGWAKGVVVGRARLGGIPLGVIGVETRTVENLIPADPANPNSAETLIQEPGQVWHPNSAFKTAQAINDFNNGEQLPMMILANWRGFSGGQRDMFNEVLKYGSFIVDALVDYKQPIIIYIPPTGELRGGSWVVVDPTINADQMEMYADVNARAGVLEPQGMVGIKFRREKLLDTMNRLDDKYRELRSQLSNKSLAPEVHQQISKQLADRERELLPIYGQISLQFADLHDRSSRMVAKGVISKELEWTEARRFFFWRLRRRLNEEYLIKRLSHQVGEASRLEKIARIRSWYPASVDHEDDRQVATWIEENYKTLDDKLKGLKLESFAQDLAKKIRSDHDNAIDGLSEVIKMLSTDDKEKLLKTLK

human (hACC2), sequence (O00763 whole entry): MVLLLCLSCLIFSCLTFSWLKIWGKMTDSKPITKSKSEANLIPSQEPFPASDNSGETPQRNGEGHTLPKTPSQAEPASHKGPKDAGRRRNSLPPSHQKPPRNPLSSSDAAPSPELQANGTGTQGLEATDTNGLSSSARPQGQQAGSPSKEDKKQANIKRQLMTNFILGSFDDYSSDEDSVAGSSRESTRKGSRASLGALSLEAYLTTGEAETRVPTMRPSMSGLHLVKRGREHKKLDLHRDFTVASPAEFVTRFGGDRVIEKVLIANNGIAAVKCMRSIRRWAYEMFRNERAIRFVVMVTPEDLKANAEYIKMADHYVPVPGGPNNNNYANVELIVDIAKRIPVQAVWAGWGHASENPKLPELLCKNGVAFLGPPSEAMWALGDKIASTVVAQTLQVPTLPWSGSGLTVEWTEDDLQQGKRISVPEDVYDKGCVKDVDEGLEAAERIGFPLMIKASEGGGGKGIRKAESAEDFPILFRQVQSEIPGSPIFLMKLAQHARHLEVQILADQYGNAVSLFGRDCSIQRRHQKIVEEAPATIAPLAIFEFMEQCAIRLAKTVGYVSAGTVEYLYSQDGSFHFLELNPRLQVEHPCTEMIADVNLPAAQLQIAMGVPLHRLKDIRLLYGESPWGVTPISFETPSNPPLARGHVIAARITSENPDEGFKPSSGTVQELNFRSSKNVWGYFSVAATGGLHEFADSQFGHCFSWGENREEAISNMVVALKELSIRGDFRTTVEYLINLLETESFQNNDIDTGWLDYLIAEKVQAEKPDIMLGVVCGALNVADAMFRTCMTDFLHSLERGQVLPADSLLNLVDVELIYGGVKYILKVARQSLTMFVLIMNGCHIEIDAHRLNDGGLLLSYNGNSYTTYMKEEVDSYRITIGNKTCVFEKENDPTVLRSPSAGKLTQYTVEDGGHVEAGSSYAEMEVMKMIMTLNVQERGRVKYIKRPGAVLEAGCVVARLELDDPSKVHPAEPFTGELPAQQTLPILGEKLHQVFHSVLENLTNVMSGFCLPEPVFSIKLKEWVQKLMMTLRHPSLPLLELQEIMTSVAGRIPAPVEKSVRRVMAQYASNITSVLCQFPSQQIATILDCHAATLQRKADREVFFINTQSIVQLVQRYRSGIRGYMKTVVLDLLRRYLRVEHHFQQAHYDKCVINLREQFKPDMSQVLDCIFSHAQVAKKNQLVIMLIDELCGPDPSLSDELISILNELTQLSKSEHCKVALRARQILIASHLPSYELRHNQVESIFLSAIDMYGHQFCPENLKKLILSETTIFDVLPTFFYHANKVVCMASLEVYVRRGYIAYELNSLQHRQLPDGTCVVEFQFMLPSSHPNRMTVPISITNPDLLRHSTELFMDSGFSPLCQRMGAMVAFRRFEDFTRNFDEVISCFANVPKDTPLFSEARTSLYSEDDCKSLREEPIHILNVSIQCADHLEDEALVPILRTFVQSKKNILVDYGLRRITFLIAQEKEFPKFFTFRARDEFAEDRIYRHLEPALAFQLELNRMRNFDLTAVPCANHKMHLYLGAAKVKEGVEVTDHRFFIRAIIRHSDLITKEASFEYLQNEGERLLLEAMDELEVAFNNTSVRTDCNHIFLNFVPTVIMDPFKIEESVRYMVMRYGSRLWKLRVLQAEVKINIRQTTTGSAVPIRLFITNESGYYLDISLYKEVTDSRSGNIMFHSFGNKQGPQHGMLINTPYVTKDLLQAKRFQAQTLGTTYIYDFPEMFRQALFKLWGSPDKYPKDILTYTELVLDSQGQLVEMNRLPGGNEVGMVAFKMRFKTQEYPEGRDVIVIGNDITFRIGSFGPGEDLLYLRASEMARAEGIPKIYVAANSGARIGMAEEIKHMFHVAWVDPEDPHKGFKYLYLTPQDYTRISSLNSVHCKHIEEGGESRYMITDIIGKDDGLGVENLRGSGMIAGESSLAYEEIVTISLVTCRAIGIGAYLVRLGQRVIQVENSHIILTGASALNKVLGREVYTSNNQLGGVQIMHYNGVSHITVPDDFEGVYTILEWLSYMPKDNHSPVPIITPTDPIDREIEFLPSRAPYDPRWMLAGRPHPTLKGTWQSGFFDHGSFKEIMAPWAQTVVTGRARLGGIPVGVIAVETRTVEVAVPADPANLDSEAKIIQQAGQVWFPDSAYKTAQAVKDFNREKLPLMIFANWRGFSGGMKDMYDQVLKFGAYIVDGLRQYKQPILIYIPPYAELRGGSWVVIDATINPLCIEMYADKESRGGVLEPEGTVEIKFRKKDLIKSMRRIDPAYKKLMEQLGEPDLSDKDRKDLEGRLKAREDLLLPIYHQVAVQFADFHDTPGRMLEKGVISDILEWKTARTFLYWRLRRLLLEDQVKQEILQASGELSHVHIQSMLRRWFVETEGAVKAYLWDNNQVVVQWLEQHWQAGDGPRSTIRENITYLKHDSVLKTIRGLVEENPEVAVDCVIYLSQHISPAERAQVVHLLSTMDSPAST

SMILES	IC50 [1]	MIC [2]	MIC [3]	MIC [4]	IC90 [5]	IC90 [6]	IC90 [7]	IC90 [8]	IC90 [9]	IC90 [10]	IC90 [11]	IC90 [12]	IC50 [13]
COc1ccccc1[C@H](Cn1c(=O)n([C@H](C)C(=O)N(C)C(C)C)c(=O)c2c(C)c(-n3nccn3)sc21)OCCC#N [Compound I-205]	5 to 10 nM	2.01 to 4 µg/mL (≈ 3.47 to 6.9 µM)	2.01 to 4 µg/mL (≈ 3.47 to 6.9 µM)	1.01 to 2 µg/mL (≈ 1.74 to 3.45 µM)	2 µg/mL (≈ 3.45 µM)	10 µg/mL (≈ 17.3 µM)	10 µg/mL (≈ 17.3 µM)	2 µg/mL (≈ 3.45 µM)	10 µg/mL (≈ 17.3 µM)	> 50 µg/mL	10 µg/mL (≈ 17.3 µM)	> 50 µg/mL	0.3 to 1 nM
COc1ccccc1[C@H](Cn1c(=O)n([C@@H](C)C(=O)N(C)C(C)C)c(=O)c2c(C)c(-n3nccn3)sc21)OCCC#N [Compound I-206]	1 to 5 nM	2.01 to 4 µg/mL (≈ 3.47 to 6.9 µM)	2.01 to 4 µg/mL (≈ 3.47 to 6.9 µM)	1.01 to 2 µg/mL (≈ 1.74 to 3.45 µM)	2 µg/mL (≈ 3.45 µM)	2 µg/mL (≈ 3.45 µM)	2 µg/mL (≈ 3.45 µM)	0.08 µg/mL (≈ 0.138 µM)	0.08 µg/mL (≈ 0.138 µM)	10 µg/mL (≈ 17.3 µM)	0.08 µg/mL (≈ 0.138 µM)	10 µg/mL (≈ 17.3 µM)	0.3 to 1 nM
COc1ccc(F)cc1[C@H](Cn1c(=O)n([C@H](C)C(=O)NC(C)C)c(=O)c2c(C)c(-n3nccn3)sc21)OCC(C)(C)C#N [Compound I-210]	1 to 5 nM	1.01 to 2 µg/mL (≈ 1.65 to 3.27 µM)	2.01 to 4 µg/mL (≈ 3.29 to 6.54 µM)	1.01 to 2 µg/mL (≈ 1.65 to 3.27 µM)	0.4 µg/mL (≈ 0.654 µM)	0.4 µg/mL (≈ 0.654 µM)	0.4 µg/mL (≈ 0.654 µM)	0.08 µg/mL (≈ 0.131 µM)	0.4 µg/mL (≈ 0.654 µM)	> 50 µg/mL	0.08 µg/mL (≈ 0.131 µM)	2 µg/mL (≈ 3.27 µM)	0.3 to 1 nM
COc1ccc(F)cc1[C@H](Cn1c(=O)n([C@@H](C)C(=O)NC(C)C)c(=O)c2c(C)c(-n3nccn3)sc21)OCC(C)(C)C#N [Compound I-211]	10 to 40 nM	1.01 to 2 µg/mL (≈ 1.65 to 3.27 µM)	2.01 to 4 µg/mL (≈ 3.29 to 6.54 µM)	1.01 to 2 µg/mL (≈ 1.65 to 3.27 µM)	2 µg/mL (≈ 3.27 µM)	> 50 µg/mL	10 µg/mL (≈ 16.3 µM)	2 µg/mL (≈ 3.27 µM)	> 50 µg/mL	> 50 µg/mL	> 50 µg/mL	> 50 µg/mL	1 to 5 nM
COc1ccc(F)cc1[C@H](Cn1c(=O)n([C@H](C)C(N)=O)c(=O)c2c(C)c(-n3nccn3)sc21)OCC(C)(C)C#N [Compound I-212]	1 to 5 nM	0.25 to 1 µg/mL (≈ 0.439 to 1.76 µM)	> 4.01 µg/mL	2.01 to 4 µg/mL (≈ 3.53 to 7.02 µM)	2 µg/mL (≈ 3.51 µM)	10 µg/mL (≈ 17.6 µM)	10 µg/mL (≈ 17.6 µM)	2 µg/mL (≈ 3.51 µM)	10 µg/mL (≈ 17.6 µM)	> 50 µg/mL	2 µg/mL (≈ 3.51 µM)	> 50 µg/mL	1 to 5 nM
COc1ccc(F)cc1[C@H](Cn1c(=O)n([C@@H](C)C(N)=O)c(=O)c2c(C)c(-n3nccn3)sc21)OCC(C)(C)C#N [Compound I-213]	5 to 10 nM	0.25 to 1 µg/mL (≈ 0.439 to 1.76 µM)	> 4.01 µg/mL	2.01 to 4 µg/mL (≈ 3.53 to 7.02 µM)	> 50 µg/mL	> 50 µg/mL	> 50 µg/mL	10 µg/mL (≈ 17.6 µM)	> 50 µg/mL	> 50 µg/mL	> 50 µg/mL	> 50 µg/mL	1 to 5 nM
